Source: patent publication US12685726B2, “Sulfoximines as inhibitors of NaV1.8” (Gruenenthal GmbH, priority 2022, dated 2026)

Molecular target: T1, human NaV 1.8 (Homo sapiens, UniProt Q9Y5Y9)
T1 construct: expressed in transfected cells; host or cells: HEK (recombinant cell line)
Assay: Automated whole-cell patch clamp (Qube384) voltage-clamp recordings of sodium currents in HEK-NaV1.8 cell line
Type: cell-based
Settings: read-out: Potency category (human NaV 1.8 IC50)
How it was run: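 HEK cells expressing NaV1.8 with b3, whole-cell automated voltage clamp at room temperature or 19° C.; CsF-based internal, pH 7.4 external. State-dependent (−120 mV, V1/2 4 s, −10 mV test pulses) and 10/20 Hz 40-pulse protocols; ~12 min compound, vehicle-corrected, IC50 by 4-parameter logistic fit.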

T1 sequence (Q9Y5Y9 whole entry): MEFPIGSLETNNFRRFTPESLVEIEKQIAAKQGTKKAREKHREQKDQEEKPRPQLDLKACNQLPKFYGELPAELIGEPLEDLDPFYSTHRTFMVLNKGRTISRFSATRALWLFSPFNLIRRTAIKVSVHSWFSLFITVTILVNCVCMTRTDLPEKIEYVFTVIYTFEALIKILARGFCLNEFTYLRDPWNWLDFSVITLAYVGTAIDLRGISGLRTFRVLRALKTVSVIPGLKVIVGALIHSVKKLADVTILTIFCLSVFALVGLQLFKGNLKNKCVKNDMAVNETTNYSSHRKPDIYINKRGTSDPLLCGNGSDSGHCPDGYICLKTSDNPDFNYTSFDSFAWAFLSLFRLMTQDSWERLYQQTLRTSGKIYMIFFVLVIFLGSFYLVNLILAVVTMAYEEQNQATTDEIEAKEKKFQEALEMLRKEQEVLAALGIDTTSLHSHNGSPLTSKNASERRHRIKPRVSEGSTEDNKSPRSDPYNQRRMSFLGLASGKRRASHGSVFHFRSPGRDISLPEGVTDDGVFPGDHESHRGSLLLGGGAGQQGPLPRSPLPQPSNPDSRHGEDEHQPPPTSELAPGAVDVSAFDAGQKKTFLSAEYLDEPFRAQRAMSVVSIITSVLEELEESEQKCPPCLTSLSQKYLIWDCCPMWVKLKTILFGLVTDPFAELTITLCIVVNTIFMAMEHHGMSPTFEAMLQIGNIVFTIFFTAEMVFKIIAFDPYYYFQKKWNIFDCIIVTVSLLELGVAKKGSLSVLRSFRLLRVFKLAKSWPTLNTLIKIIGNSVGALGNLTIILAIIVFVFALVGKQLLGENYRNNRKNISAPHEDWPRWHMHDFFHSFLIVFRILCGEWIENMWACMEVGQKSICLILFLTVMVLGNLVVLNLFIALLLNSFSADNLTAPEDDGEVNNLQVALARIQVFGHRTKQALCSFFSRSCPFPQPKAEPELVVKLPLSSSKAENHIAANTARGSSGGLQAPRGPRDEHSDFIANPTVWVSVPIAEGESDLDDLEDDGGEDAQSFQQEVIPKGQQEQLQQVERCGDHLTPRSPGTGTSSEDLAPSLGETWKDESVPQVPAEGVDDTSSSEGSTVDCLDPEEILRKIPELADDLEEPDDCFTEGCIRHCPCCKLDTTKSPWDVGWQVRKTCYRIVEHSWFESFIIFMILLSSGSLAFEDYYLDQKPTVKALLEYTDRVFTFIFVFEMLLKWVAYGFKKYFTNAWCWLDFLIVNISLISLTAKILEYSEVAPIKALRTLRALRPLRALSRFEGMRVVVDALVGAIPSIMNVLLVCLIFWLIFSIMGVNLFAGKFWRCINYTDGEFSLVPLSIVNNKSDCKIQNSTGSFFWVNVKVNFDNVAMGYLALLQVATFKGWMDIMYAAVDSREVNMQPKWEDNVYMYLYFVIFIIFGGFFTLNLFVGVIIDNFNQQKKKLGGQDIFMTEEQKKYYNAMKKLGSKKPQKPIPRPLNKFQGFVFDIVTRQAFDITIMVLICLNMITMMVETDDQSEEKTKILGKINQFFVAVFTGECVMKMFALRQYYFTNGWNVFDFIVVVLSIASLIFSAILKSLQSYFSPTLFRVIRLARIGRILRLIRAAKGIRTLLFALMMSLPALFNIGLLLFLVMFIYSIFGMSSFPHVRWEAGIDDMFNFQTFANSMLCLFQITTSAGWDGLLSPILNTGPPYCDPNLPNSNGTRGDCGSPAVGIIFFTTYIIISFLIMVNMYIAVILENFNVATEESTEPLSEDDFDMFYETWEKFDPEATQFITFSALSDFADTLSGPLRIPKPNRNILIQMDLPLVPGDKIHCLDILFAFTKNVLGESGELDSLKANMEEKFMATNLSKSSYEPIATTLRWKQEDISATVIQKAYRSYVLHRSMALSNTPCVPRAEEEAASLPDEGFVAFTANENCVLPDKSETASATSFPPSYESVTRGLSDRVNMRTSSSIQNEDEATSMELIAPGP

SMILES	IC50 [nM]
CS(=N)(=O)c1cc(NC(=O)c2c(C(F)(F)F)c(C34CC(C3)C4)nn2CC2C[C@@H]2C(F)F)ccn1 (stereo in doubt) [Example 146, 3-(Bicyclo[1.1.1]pentan-1-yl)-1-(((trans)-2-(difluoromethyl)cyclopropyl)methyl)-N-(2-(S-methylsulfonimidoyl)pyridin-4-yl)-4-(trifluoromethyl)-1H-pyrazole-5-carboxamide]	≤ 100
CS(=N)(=O)c1cc(NC(=O)c2c(C(F)(F)F)c(C3CC3)nn2CC2CCC(F)(F)C2)ccn1 (single isomer, unassigned) [Example 7a, 3-cyclopropyl-1-((3,3-difluorocyclopentyl)methyl)-N-(2-(S-methylsulfonimidoyl)pyridin-4-yl)-4-(trifluoromethyl)-1H-pyrazole-5-carboxamide]	≤ 100
CS(=N)(=O)c1cc(NC(=O)c2c(C(F)(F)F)c(C3CC3)nn2CC23CC(CC2(F)F)C3)ccn1 (single isomer, unassigned) [Example 103a, 3-cyclopropyl-1-((2,2-difluorobicyclo[2.1.1]hexan-1-yl)methyl)-N-(2-(S-methylsulfonimidoyl)pyridin-4-yl)-4-(trifluoromethyl)-1H-pyrazole-5-carboxamide]	≤ 100
CCS(=N)(=O)c1cc(NC(=O)c2c(C(F)(F)F)c(C3CC3)nn2CC2(C)CC(F)(F)C2)ccn1 (single isomer, unassigned) [Example 48a, 3-cyclopropyl-1-((3,3-difluoro-1-methylcyclobutyl)methyl)-N-(2-(ethylsulfonimidoyl)pyridin-4-yl)-4-(trifluoromethyl)-1H-pyrazole-5-carboxamide]	≤ 100
C[C@@H]1C[C@H]1c1nn(CC2(C)CC(F)(F)C2)c(C(=O)Nc2ccnc([S@@](C)(=N)=O)c2)c1C(F)(F)F (single isomer, unassigned) [Example 65d, 1-((3,3-Difluoro-1-methylcyclobutyl)methyl)-3-((trans)-2-methylcyclopropyl)-N-(2-(S-methylsulfonimidoyl)pyridin-4-yl)-4-(trifluoromethyl)-1H-pyrazole-5-carboxamide]	≤ 100
C[S@@](=N)(=O)c1cc(NC(=O)c2c(C(F)(F)F)c(C3CC3)nn2C[C@@H]2CC23CC3)ccn1 (single isomer, unassigned) [Example 78a, 3-cyclopropyl-N-(2-(S-methylsulfonimidoyl)pyridin-4-yl)-1-(spiro[2.2]pentan-1-ylmethyl)-4-(trifluoromethyl)-1H-pyrazole-5-carboxamide]	≤ 100
CN=S(C)(=O)c1cc(NC(=O)c2c(C)c(C(C)(F)F)nn2CC2(C)CC(F)(F)C2)ccn1 (single isomer, unassigned) [Example 34b, 1-((3,3-Difluoro-1-methylcyclobutyl)methyl)-3-(1,1-difluoroethyl)-N-(2-(N,S-dimethylsulfonimidoyl)pyridin-4-yl)-4-methyl-1H-pyrazole-5-carboxamide]	≤ 100
CS(=N)(=O)c1cc(NC(=O)c2c(C(F)(F)F)c(C3CC3)nn2CC2CC3(C2)CC(F)(F)C3)ccn1 (single isomer, unassigned) [Example 27b, 3-cyclopropyl-1-((6,6-difluorospiro[3.3]heptan-2-yl)methyl)-N-(2-(S-methylsulfonimidoyl)pyridin-4-yl)-4-(trifluoromethyl)-1H-pyrazole-5-carboxamide]	≤ 100
CC1(Cn2nc(C3(F)CC3)c(C(F)(F)F)c2C(=O)Nc2ccnc(S(C)(=N)=O)c2)CC(F)(F)C1 (single isomer, unassigned) [Example 70a, 1-((3,3-Difluoro-1-methylcyclobutyl)methyl)-3-(1-fluorocyclopropyl)-N-(2-(S-methylsulfonimidoyl)pyridin-4-yl)-4-(trifluoromethyl)-1H-pyrazole-5-carboxamide]	≤ 100
CC1(Cn2nc(C3CCCC3)c(C(F)(F)F)c2C(=O)Nc2ccnc(S(C)(=N)=O)c2)CC(F)(F)C1 (single isomer, unassigned) [Example 59b, 3-Cyclopentyl-1-((3,3-difluoro-1-methylcyclobutyl)methyl)-N-(2-(S-methylsulfonimidoyl)pyridin-4-yl)-4-(trifluoromethyl)-1H-pyrazole-5-carboxamide]	≤ 100
CS(=N)(=O)c1cc(NC(=O)c2c(C(F)(F)F)c(C3CC3)nn2CC2(C(F)(F)F)CCCC2)ccn1 (single isomer, unassigned) [Example 98b, 3-cyclopropyl-N-(2-(S-methylsulfonimidoyl)pyridin-4-yl)-4-(trifluoromethyl)-1-((1-(trifluoromethyl)cyclopentyl)methyl)-1H-pyrazole-5-carboxamide]	≤ 100
CS(=N)(=O)c1cc(NC(=O)c2c(C(F)(F)F)c(C3CC3)nn2CC23CC2CC(F)(F)C3)ccn1 (single isomer, unassigned) [Example 95c, 3-Cyclopropyl-1-((3,3-difluorobicyclo[3.1.0]hexan-1-yl)methyl)-N-(2-(S-methylsulfonimidoyl)pyridin-4-yl)-4-(trifluoromethyl)-1H-pyrazole-5-carboxamide]	≤ 100
Cc1c(C(C)(F)F)nn(CC2CCC(F)(F)C2)c1C(=O)Nc1ccnc(S(C)(=N)=O)c1 (stereo not drawn) [Example 4, 1-((3,3-Difluorocyclopentyl)methyl)-3-(1,1-difluoroethyl)-4-methyl-N-(2-(S-methylsulfonimidoyl)pyridin-4-yl)-1H-pyrazole-5-carboxamide]	≤ 100
C[S@@](=N)(=O)c1cc(NC(=O)c2c(C(F)(F)F)c(C3CC3)nn2C[C@@H]2C(F)(F)C23CC3)ccn1 (single isomer, unassigned) [Example 79c, 3-cyclopropyl-1-((2,2-difluorospiro[2.2]pentan-1-yl)methyl)-N-(2-(S-methylsulfonimidoyl)pyridin-4-yl)-4-(trifluoromethyl)-1H-pyrazole-5-carboxamide]	≤ 100
CS(=N)(=O)c1cc(NC(=O)c2c(C(F)(F)F)c(C3CC3)nn2CC23CC(C(F)(F)F)(C2)C3)ccn1 (single isomer, unassigned) [Example 23a, 3-cyclopropyl-N-(2-(S-methylsulfonimidoyl)pyridin-4-yl)-4-(trifluoromethyl)-1-((3-(trifluoromethyl)bicyclo[1.1.1]pentan-1-yl)methyl)-1H-pyrazole-5-carboxamide]	≤ 100
CC(F)(F)c1nn(CC2CC(F)(F)C2)c(C(=O)Nc2ccnc(S(C)(=N)=O)c2)c1C(F)(F)F (stereo not drawn) [Example 3, 1-((3,3-Difluorocyclobutyl)methyl)-3-(1,1-difluoroethyl)-N-(2-(S-methylsulfonimidoyl)pyridin-4-yl)-4-(trifluoromethyl)-1H-pyrazole-5-carboxamide]	≤ 100

Next, values leading:

IC50 [nM]	SMILES
≤ 100	C[C@]1(Cn2nc(C3CC3)c(C(F)(F)F)c2C(=O)Nc2ccnc([S@](C)(=N)=O)c2)CC(F)(F)C12CC2 (single isomer, unassigned) [Example 92a, 3-cyclopropyl-1-((6,6-difluoro-4-methylspiro[2.3]hexan-4-yl)methyl)-N-(2-(S-methylsulfonimidoyl)pyridin-4-yl)-4-(trifluoromethyl)-1H-pyrazole-5-carboxamide]
≤ 100	Cc1c(C(C)(F)F)nn(CC2(C)CC(F)(F)C2)c1C(=O)Nc1ccnc(S(C)(=N)=O)c1 (single isomer, unassigned) [Example 5b, 1-((3,3-difluoro-1-methylcyclobutyl)methyl)-3-(1,1-difluoroethyl)-4-methyl-N-(2-(S-methylsulfonimidoyl)pyridin-4-yl)-1H-pyrazole-5-carboxamide]
≤ 100	Cc1c(C(C)(F)F)nn(CC23CC(C(F)(F)F)(C2)C3)c1C(=O)Nc1ccnc(S(C)(=N)=O)c1 (single isomer, unassigned) [Example 15b, 3-(1,1-difluoroethyl)-4-methyl-N-(2-(S-methylsulfonimidoyl)pyridin-4-yl)-1-((3-(trifluoromethyl)bicyclo[1.1.1]pentan-1-yl)methyl)-1H-pyrazole-5-carboxamide]
≤ 100	C[S@](=N)(=O)c1cc(NC(=O)c2c(C(F)(F)F)c(C3CC3)nn2C[C@]2(C)C[C@@H](C(F)(F)F)C2)ccn1 (single isomer, unassigned) [Example 86d, 3-cyclopropyl-1-(((cis)-1-methyl-3-(trifluoromethyl)cyclobutyl)methyl)-N-(2-(S-methylsulfonimidoyl)pyridin-4-yl)-4-(trifluoromethyl)-1H-pyrazole-5-carboxamide]
≤ 100	Cc1c(C(C)(F)F)nn(C[C@H]2C[C@@H](C(F)(F)F)C2)c1C(=O)Nc1ccnc(S(C)(=N)=O)c1 (single isomer, unassigned) [Example 31a, 3-(1,1-difluoroethyl)-4-methyl-N-(2-(S-methylsulfonimidoyl)pyridin-4-yl)-1-(((cis)-3-(trifluoromethyl)cyclobutyl)methyl)-1H-pyrazole-5-carboxamide]
≤ 100	CC1(Cn2nc(C3(F)CC3)c(C(F)(F)F)c2C(=O)Nc2cccc(S(C)(=O)=NC(=O)C3COC3)c2)CC(F)(F)C1 (single isomer, unassigned) [Example 150a, 1-((3,3-Difluoro-1-methylcyclobutyl)methyl)-3-(1-fluorocyclopropyl)-N-(3-(S-methyl-N-(oxetane-3-carbonyl)sulfonimidoyl)phenyl)-4-(trifluoromethyl)-1H-pyrazole-5-carboxamide]
≤ 100	CS(=N)(=O)c1cc(NC(=O)c2c(C(F)(F)F)c(C3CC3)nn2CC2C(F)(F)C23CCC3)ccn1 (single isomer, unassigned) [Example 136c, 3-Cyclopropyl-1-((2,2-difluorospiro[2.3]hexan-1-yl)methyl)-N-(2-(S-methylsulfonimidoyl)pyridin-4-yl)-4-(trifluoromethyl)-1H-pyrazole-5-carboxamide]
≤ 100	CC1(Cn2nc(C3(F)CC3)c(C(F)(F)F)c2C(=O)Nc2cccc(S(C)(=N)=O)c2)CC(F)(F)C1 (single isomer, unassigned) [Example 109b, 1-((3,3-Difluoro-1-methylcyclobutyl)methyl)-3-(1-fluorocyclopropyl)-N-(3-(S-methylsulfonimidoyl)phenyl)-4-(trifluoromethyl)-1H-pyrazole-5-carboxamide]
